This note sets out measurements from ChEMBL document CHEMBL1201862, “PubChem BioAssay data set” (2004).

Assay [1] deals with Ribosomal protein S6 kinase alpha-3 (Homo sapiens, UniProt P51812). The format is functional.
For assay [2], the target named is Tyrosine-protein kinase receptor TYRO3 (Homo sapiens, UniProt Q06418). The format is functional.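 Also: TYRO3 value obtained as one member of a kinome-wide profiling panel.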
In assay [3] the target is Mitogen-activated protein kinase 8 (Homo sapiens, UniProt P45983). The class given is functional.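 Also: value comes from one member of a kinome-wide kinase profiling panel.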
Assay [4] addresses MAP kinase-activated protein kinase 2 (Homo sapiens, UniProt P49137). The class given is functional.
Assay [5] has as its target Serine/threonine-protein kinase PAK 1 (Homo sapiens, UniProt Q13153). The format is functional.
The target of assay [6] is Calcium/calmodulin-dependent protein kinase type II subunit delta (Homo sapiens, UniProt Q13557). The format is functional.
The target of assay [7] is Fibroblast growth factor receptor 1 (Homo sapiens, UniProt P11362). The format is functional.
Assay [8] concerns the target Testis-specific serine/threonine-protein kinase 1 (Homo sapiens, UniProt Q9BXA7). The format is functional.
Assay [9] concerns the target MAP/microtubule affinity-regulating kinase 3 (Homo sapiens, UniProt P27448). The class given is functional.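 Also: MARK3 affinity measured as one member of a kinome panel.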
The target in assay [10] is Protein kinase C gamma type (Homo sapiens, UniProt P05129). The format is functional.
For assay [11], the target named is Proto-oncogene tyrosine-protein kinase Src (Homo sapiens, UniProt P12931). The class given is functional.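 Also: SRC entry within a kinome-wide kinase profiling panel.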
Assay [12] addresses Hepatocyte growth factor receptor (Homo sapiens, UniProt P08581). The format is functional.
For assay [13], the target named is Tyrosine-protein kinase ABL1 (Homo sapiens, UniProt P00519). The format is functional.
In a further assay the target is Misshapen-like kinase 1 (Homo sapiens, UniProt Q8N4C8). The class given is functional.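 Also: kinome panel screen with MINK as the panel member.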
In assay [14] the target is Protein kinase C iota type (Homo sapiens, UniProt P41743). The class given is functional.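 Also: measured within a kinome-wide kinase panel, PRKCI as panel member.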
For another assay, the target named is Focal adhesion kinase 1 (Homo sapiens, UniProt Q05397). The class given is functional.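 Also: measured as one member of a kinome panel.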
Assay [15] deals with Maternal embryonic leucine zipper kinase (Homo sapiens, UniProt Q14680). The format is functional.
Assay [16] concerns the target BDNF/NT-3 growth factors receptor (Homo sapiens, UniProt Q16620). The format is functional.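 Also: NTRK2 measured as one member of a broad kinome-wide kinase profiling panel.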
The target of assay [17] is Mitogen-activated protein kinase 14 (Homo sapiens, UniProt Q16539). The class given is functional.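 Also: part of a kinome-wide panel, MAPK14 entry.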
Assay [18] deals with T1, Microphthalmia-associated transcription factor (Homo sapiens, UniProt O75030).
T1 sequence (O75030 whole entry): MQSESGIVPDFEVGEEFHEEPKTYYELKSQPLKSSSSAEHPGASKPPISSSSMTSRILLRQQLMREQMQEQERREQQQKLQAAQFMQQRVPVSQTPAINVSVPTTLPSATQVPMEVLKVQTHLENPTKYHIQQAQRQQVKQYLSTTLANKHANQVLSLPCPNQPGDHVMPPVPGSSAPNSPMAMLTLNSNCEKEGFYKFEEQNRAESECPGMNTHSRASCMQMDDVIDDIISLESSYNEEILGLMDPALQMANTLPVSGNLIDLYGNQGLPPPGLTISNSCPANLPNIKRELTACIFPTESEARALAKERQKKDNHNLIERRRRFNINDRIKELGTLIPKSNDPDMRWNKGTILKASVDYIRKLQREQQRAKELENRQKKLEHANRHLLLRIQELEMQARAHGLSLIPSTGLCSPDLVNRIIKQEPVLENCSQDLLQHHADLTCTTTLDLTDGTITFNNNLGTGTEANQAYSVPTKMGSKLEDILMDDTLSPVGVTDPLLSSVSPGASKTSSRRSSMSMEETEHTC
Description: reducers of TRPM1 reporter luminescence, concentration series – cell-based, SK-MEL-5, cherry-picked, set 3, MITF inhibitor project, dose response (AID 493073).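 Also: SK-MEL-5 melanoma cells with luciferase driven by the MITF target TRPM1 promoter.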 The class given is functional.

The target of assay [19] is Serine/threonine-protein phosphatase (Homo sapiens, UniProt Q9BPW0). Description: inhibition of protein phosphatase 5 activity – biochemical, fluorescence, dose response (AID 2395).
Assay [20] can be described thus: HEK-293T cell viability reduction – luminescence, B-cell screen hits, cytotoxicity control for BCR NF-kB inhibitor project, dose response (AID 489021).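 Also: HEK-293T cells carrying an NF-kB luciferase reporter; cells exposed to compound for about 14 hours before viability readout.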 The format is functional, cell-based.
For assay [21], the target named is T2, Sentrin-specific protease 6 (Homo sapiens, UniProt Q9GZR1).
T2 sequence (Q9GZR1 whole entry): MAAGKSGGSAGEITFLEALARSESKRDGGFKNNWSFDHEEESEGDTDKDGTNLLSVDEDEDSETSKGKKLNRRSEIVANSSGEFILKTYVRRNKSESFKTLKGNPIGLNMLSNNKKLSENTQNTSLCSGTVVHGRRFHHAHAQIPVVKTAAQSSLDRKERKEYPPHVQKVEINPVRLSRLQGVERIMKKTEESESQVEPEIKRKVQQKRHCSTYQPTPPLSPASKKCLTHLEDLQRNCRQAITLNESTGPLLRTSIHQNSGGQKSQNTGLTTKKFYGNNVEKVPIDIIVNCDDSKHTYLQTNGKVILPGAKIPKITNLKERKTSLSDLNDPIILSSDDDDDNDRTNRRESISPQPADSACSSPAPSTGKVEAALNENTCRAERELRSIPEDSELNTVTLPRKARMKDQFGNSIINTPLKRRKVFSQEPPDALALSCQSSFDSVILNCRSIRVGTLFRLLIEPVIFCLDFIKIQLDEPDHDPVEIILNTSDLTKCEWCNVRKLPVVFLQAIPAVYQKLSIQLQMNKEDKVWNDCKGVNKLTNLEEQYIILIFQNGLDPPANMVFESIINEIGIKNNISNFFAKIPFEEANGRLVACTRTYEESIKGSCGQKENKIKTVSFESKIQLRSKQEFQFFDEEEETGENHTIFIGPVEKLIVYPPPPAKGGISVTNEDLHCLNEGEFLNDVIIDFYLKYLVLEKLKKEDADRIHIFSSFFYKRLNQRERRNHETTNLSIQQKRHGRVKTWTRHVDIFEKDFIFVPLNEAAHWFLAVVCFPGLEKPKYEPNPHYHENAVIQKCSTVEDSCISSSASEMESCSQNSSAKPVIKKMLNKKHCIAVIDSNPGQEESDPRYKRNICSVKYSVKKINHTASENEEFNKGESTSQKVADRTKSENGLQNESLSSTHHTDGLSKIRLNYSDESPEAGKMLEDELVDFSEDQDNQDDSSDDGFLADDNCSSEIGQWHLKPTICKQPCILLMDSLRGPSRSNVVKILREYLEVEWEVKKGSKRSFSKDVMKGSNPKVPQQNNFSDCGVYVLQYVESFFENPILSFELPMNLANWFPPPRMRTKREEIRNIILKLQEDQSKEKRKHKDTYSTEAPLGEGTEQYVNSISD
Description: SAR Analysis of small molecule inhibitors of Sentrin-specific protease 6 (SENP6) using a Luminescent assay. [Related pubchem assays (depositor defined):AID2582, AID2599]. The format is functional.

Molecules are shown by their SMILES. Calls of active or inactive are those of the source.

Calcium/calmodulin-dependent protein kinase type II subunit delta, sequence (Q13557 whole entry): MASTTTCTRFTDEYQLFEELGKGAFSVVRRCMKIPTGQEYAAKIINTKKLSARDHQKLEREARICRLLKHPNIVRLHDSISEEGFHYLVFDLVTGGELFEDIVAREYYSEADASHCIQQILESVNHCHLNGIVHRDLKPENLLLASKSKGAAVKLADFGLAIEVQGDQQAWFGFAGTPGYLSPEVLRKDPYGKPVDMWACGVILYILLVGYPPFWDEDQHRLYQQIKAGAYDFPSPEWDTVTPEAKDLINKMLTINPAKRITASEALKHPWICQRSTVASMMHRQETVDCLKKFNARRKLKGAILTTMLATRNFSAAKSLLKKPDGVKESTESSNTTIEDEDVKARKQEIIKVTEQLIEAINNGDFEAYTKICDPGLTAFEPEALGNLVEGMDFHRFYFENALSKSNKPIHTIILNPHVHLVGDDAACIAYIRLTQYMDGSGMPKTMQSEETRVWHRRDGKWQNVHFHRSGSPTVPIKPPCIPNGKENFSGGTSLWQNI
Tyrosine-protein kinase ABL1, sequence (P00519 whole entry): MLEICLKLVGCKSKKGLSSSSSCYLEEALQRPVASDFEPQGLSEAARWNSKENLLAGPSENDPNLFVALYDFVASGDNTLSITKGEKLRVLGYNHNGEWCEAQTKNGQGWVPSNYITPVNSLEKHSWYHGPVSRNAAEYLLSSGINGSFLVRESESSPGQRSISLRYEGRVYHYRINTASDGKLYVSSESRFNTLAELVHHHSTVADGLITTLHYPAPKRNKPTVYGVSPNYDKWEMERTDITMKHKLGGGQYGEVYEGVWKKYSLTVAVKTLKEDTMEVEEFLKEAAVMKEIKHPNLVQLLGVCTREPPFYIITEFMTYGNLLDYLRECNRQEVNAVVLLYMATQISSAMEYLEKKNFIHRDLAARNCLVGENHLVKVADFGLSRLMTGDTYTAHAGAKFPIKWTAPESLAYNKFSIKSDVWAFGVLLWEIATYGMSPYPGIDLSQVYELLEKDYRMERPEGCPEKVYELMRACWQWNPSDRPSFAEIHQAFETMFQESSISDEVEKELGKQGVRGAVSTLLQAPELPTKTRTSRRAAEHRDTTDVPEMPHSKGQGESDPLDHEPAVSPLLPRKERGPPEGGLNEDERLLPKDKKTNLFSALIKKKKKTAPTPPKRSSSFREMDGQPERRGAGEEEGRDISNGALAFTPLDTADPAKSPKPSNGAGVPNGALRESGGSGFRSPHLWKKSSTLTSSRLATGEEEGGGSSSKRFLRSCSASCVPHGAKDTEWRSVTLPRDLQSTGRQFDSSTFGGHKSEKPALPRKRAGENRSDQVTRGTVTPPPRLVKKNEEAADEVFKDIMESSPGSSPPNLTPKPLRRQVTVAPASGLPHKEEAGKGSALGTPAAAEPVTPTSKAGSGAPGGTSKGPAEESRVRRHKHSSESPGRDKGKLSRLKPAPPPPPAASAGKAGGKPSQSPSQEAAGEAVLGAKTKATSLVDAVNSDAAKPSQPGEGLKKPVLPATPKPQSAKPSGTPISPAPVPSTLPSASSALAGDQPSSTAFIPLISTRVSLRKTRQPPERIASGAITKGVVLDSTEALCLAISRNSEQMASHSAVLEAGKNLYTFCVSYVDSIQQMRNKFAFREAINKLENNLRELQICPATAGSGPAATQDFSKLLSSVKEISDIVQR
Mitogen-activated protein kinase 14, sequence (Q16539 whole entry): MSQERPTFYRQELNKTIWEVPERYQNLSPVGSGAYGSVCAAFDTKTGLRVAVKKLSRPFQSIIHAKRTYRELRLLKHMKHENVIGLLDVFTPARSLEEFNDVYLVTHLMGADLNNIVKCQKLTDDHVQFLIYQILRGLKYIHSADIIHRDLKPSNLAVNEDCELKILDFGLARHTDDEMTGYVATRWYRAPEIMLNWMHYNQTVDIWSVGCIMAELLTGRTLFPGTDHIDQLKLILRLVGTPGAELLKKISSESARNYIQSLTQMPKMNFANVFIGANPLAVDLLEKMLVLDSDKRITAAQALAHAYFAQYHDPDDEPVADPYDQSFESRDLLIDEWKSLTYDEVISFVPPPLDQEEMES
Serine/threonine-protein phosphatase, sequence (Q9BPW0 whole entry): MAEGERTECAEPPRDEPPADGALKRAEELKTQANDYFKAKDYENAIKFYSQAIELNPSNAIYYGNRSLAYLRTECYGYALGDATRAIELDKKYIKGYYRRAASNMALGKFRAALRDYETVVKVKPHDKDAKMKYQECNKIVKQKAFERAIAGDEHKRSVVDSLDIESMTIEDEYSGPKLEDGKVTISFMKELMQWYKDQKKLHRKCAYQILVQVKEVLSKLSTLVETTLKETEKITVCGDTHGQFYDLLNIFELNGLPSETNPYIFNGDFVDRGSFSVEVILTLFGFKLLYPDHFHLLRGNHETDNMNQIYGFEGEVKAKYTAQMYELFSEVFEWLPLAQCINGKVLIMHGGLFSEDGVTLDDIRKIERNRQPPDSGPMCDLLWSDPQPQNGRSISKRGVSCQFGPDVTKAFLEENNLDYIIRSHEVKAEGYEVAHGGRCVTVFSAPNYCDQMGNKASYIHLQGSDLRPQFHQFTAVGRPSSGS
Serine/threonine-protein kinase PAK 1, sequence (Q13153 whole entry): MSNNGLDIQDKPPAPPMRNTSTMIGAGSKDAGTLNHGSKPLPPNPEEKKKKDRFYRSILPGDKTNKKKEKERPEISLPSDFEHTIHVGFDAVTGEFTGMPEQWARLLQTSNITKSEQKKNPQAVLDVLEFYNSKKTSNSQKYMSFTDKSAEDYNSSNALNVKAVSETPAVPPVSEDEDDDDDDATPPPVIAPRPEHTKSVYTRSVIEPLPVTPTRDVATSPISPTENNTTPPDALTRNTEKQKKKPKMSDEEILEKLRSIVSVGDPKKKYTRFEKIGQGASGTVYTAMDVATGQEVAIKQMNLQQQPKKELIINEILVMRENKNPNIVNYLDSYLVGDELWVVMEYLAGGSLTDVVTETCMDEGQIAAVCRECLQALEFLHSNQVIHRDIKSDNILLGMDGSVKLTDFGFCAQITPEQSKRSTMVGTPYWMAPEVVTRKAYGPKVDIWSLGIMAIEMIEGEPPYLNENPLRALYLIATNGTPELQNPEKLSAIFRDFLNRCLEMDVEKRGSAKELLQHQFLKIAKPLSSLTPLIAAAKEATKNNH
Hepatocyte growth factor receptor, sequence (P08581 whole entry): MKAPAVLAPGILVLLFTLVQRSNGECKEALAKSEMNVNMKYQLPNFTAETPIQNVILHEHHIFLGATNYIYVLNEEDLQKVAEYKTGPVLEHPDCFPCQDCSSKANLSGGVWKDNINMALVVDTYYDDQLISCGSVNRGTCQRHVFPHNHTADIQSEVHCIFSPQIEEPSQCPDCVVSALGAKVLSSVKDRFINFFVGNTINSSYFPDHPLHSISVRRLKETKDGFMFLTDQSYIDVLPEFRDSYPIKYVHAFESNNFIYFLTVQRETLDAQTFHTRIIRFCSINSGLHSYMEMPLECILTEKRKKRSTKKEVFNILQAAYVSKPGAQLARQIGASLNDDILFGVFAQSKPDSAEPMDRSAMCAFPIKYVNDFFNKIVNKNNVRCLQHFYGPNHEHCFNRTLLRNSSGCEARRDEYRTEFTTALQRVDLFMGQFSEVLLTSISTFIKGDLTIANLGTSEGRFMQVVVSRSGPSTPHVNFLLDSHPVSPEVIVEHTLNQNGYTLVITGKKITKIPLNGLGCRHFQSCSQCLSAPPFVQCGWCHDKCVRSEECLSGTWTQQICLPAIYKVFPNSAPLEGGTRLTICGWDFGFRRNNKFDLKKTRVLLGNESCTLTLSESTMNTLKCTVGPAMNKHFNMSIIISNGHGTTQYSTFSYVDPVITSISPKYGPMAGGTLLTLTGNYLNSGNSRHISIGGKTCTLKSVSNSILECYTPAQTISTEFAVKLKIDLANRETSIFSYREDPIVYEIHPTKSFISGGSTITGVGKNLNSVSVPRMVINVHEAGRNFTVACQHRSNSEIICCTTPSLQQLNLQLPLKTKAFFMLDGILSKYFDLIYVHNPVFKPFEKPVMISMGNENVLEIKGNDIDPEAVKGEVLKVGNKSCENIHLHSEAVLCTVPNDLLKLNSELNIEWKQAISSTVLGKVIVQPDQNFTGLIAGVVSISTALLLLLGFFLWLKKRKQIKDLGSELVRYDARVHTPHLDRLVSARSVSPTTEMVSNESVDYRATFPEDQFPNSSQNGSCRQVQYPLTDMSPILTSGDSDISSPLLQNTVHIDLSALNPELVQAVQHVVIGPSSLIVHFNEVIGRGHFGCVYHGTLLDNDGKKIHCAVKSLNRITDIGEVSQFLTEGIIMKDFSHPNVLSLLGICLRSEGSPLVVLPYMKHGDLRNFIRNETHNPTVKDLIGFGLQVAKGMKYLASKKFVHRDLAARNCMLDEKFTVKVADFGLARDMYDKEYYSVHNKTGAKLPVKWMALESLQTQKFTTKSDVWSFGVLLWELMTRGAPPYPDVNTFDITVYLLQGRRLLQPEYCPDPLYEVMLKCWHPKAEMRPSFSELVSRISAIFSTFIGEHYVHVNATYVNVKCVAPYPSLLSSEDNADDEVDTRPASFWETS
Testis-specific serine/threonine-protein kinase 1, sequence (Q9BXA7 whole entry): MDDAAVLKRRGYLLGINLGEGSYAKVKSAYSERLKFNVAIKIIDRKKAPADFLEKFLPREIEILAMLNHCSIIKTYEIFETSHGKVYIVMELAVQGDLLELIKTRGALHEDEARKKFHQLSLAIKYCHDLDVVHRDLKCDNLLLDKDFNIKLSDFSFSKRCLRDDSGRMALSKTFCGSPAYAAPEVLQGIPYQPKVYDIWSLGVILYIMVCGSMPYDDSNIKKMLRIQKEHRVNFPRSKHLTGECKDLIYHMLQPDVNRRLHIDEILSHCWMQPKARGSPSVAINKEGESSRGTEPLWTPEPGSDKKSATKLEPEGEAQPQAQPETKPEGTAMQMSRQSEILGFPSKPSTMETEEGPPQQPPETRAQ

`CC(N)C1CCC(C(=O)Nc2ccnc3[nH]ccc23)CC1` (stereo not drawn): the Ki (commonly a dissociation constant, usually derived from enzyme kinetics or from competition with a known ligand) in assay [1] was 1.26 µM (active); in [2], > 2.51 µM (inactive); in [3], > 3.98 µM (inactive); in assay [4], > 7.94 µM (inactive); in assay [5] it was > 10 µM (inactive); in [6] it was 3.16 µM (active). For the same compound, the Ki in assay [7] was > 3.98 µM (inactive); in assay [8] it was > 1.58 µM (inactive); in assay [9] it was > 5.01 µM (inactive); in assay [10], 2.51 µM (active); in assay [11] it was > 2 µM (inactive); in [12] it was > 2.51 µM (inactive). In addition, the Ki in assay [13] is > 0.631 µM (inactive); on Misshapen-like kinase 1, 3.16 µM (active); in assay [14], 3.98 µM (active); at Focal adhesion kinase 1, > 3.16 µM (inactive); in [15], > 1.58 µM (inactive); in assay [16], > 3.16 µM (inactive). In addition, the Ki in assay [17] is > 3.98 µM (inactive).

Consider `Cc1c(NC(=O)C(C)OC(=O)c2ccc([N+](=O)[O-])s2)c(=O)n(-c2ccccc2)n1C` (stereo not drawn), for which the AC50 – broadly, the midpoint of the concentration-response curve, whichever way the signal moves – in [18] is 34.1 µM (active).

As to `COc1cc(Br)c(C(=O)c2nccc3cc(OC)c(OC)cc23)cc1OC`, the IC50 (commonly the concentration at which inhibition is half-maximal) in assay [19] is 5.92 µM (active); in [20], > 80 µM (inactive); in assay [21], 14.3 µM (active).
